{"source": "paper PMC12564265", "about": "“Navigating the Deep Eutectic Solvent Landscape: Experimental and Machine Learning Solubility Explorations of Syringic, p-Coumaric, and Caffeic Acids” (International Journal of Molecular Sciences, 2025)", "assay": "Shake-flask solubility with spectrophotometric measurement in aqueous DES mixtures", "assay_type": "physicochemical", "details": "for Increase in the solubility compared to the neat DES: 25 °C", "method": "In order to determine the solubility of the three studied phenolic acids in deep eutectic solvents, a very well-established shake-flask method coupled with spectrophotometric measurements was utilized. The initial procedure involved the preparation of various DESs, which was conducted by mixing their HBA and HBD counterparts in a glass vessel and heating the composition until the formation of a transparent, uniform liquid. […] For additional measurements, the DESs were mixed with water in varying proportions, creating aqueous DES systems. Saturated solutions of CAF, SYR, and COU were obtained by adding excess amounts of these compounds to test tubes containing either a neat deep eutectic solvent or its aqueous solution. Such samples were placed in the Orbital Shaker Incubator ES-20/60 from Biosan (Riga, Latvia) and heated for 24 h at 25 °C, 30 °C, 35 °C, and 40 °C (±0.1 °C) with simultaneous mixing at 60 rpm. Before measurements, the samples were filtered using a PTFE syringe filter from Qpore (Dallas, TX, USA) with a 0.22 μm pore size. In order to avoid possible precipitation of the saturated solutions at decreased temperatures, the test tubes, syringes, pipette tips, and filters were kept at a temperature identical to that of the samples. The spectrophotometric measurements required the preparation of calibration curves for the three APIs. This involved the preparation of a stock solution of each compound in methanol, which was later successfully diluted, and the obtained solutions of varying concentrations were measured using an A360 spectrophotometer from AOE Instruments (Shanghai, China). The wavelength range was set to 200-500 nm, and the resolution was 1 nm. The analytical wavelengths were determined to be 324 nm for caffeic acid, 273 nm for syringic acid, and 308 nm for p-coumaric acid. The final regression equations, obtained after averaging three distinct sets of measurements, are collected in Table 2 together with determination coefficients and limits of detection (LOD) and quantification (LOQ) for the calibration curves. The measurements of the samples were conducted with the same spectrophotometer and identical settings. Methanol was used for the dilution of the samples so that they could remain within the linearity range of the method. Complete spectra of the samples were recorded, but for the solubility determination, the absorbance values at a specific analytical wavelength were considered. These values were combined with the corresponding regression equations of the calibration curves and served for the calculation of the concentration of the three phenolic acids in the studied samples. The densities of such samples were also measured, and for this task 1 mL of each sample was weighed to a precision of 0.1 mg using an AS 110 R2.PLUS analytical balance from […] (Radom, Poland). The obtained densities enabled the calculation of mole fractions of CAF, SYR, and COU dissolved in the studied DESs. For each considered system, three distinct measurements were conducted, and the results were averaged.", "note": "Several values for one entry are separate records, joined by “and”; a condition that tells them apart may be missing. Identical values can stand only once."}
{"compound": "O=C(O)C=Cc1ccc(O)c(O)c1", "note": "[caffeic acid, 3,4-dihydroxycinnamic acid]", "values": [{"measurement": "Mole fraction solubility", "setting": "Bet – TEG 1:2 + water, x*DES 0.9, 30°C", "result": "0.0941±0.0005", "unit": "mole fraction"}, {"measurement": "Mole fraction solubility", "setting": "Bet – TEG 1:2 + water, x*DES 0.9, 35°C", "result": "0.1123±0.0012", "unit": "mole fraction"}, {"measurement": "Mole fraction solubility", "setting": "Bet – TEG 1:2 + water, x*DES 0.9, 40°C", "result": "0.1364±0.0011", "unit": "mole fraction"}, {"measurement": "Mole fraction solubility", "setting": "Bet – TEG 1:2, x*DES 1.0 (neat DES), 25°C", "result": "0.0755±0.0010", "unit": "mole fraction"}, {"measurement": "Mole fraction solubility", "setting": "Bet – TEG 1:2, x*DES 1.0 (neat DES), 30°C", "result": "0.0844±0.0011", "unit": "mole fraction"}, {"measurement": "Mole fraction solubility", "setting": "Bet – TEG 1:2, x*DES 1.0 (neat DES), 35°C", "result": "0.0989±0.0012", "unit": "mole fraction"}, {"measurement": "Mole fraction solubility", "setting": "Bet – TEG 1:2, x*DES 1.0 (neat DES), 40°C", "result": "0.1215±0.0012", "unit": "mole fraction"}, {"measurement": "Increase in the solubility compared to the neat DES", "setting": "Bet-TEG 1:2, x*DES = 0.9 (xwater = 0.1)", "result": 9, "unit": "%"}, {"measurement": "Mole fraction solubility", "setting": "ChCl – TEG 1:2 + water, x*DES 0.1, 25°C", "result": "0.0098±0.0001", "unit": "mole fraction"}, {"measurement": "Mole fraction solubility", "setting": "ChCl – TEG 1:2 + water, x*DES 0.1, 30°C", "result": "0.0125±0.0001", "unit": "mole fraction"}, {"measurement": "Mole fraction solubility", "setting": "ChCl – TEG 1:2 + water, x*DES 0.1, 35°C", "result": "0.0162±0.0001", "unit": "mole fraction"}, {"measurement": "Mole fraction solubility", "setting": "ChCl – TEG 1:2 + water, x*DES 0.1, 40°C", "result": "0.0211±0.0001", "unit": "mole fraction"}, {"measurement": "Mole fraction solubility", "setting": "ChCl – TEG 1:2 + water, x*DES 0.2, 25°C", "result": "0.0184±0.0002", "unit": "mole fraction"}, {"measurement": "Mole fraction solubility", "setting": "ChCl – TEG 1:2 + water, x*DES 0.2, 30°C", "result": "0.0233±0.0002", "unit": "mole fraction"}, {"measurement": "Mole fraction solubility", "setting": "ChCl – TEG 1:2 + water, x*DES 0.2, 35°C", "result": "0.0321±0.0001", "unit": "mole fraction"}, {"measurement": "Mole fraction solubility", "setting": "ChCl – TEG 1:2 + water, x*DES 0.2, 40°C", "result": "0.0432±0.0002", "unit": "mole fraction"}, {"measurement": "Mole fraction solubility", "setting": "ChCl – TEG 1:2 + water, x*DES 0.3, 25°C", "result": "0.0292±0.0002", "unit": "mole fraction"}, {"measurement": "Mole fraction solubility", "setting": "ChCl – TEG 1:2 + water, x*DES 0.3, 30°C", "result": "0.0366±0.0003", "unit": "mole fraction"}, {"measurement": "Mole fraction solubility", "setting": "ChCl – TEG 1:2 + water, x*DES 0.3, 35°C", "result": "0.0492±0.0002", "unit": "mole fraction"}, {"measurement": "Mole fraction solubility", "setting": "ChCl – TEG 1:2 + water, x*DES 0.3, 40°C", "result": "0.0665±0.0004", "unit": "mole fraction"}, {"measurement": "Mole fraction solubility", "setting": "ChCl – TEG 1:2 + water, x*DES 0.4, 25°C", "result": "0.0381±0.0003", "unit": "mole fraction"}, {"measurement": "Mole fraction solubility", "setting": "ChCl – TEG 1:2 + water, x*DES 0.4, 30°C", "result": "0.0481±0.0003", "unit": "mole fraction"}, {"measurement": "Mole fraction solubility", "setting": "ChCl – TEG 1:2 + water, x*DES 0.4, 35°C", "result": "0.0652±0.0003", "unit": "mole fraction"}, {"measurement": "Mole fraction solubility", "setting": "ChCl – TEG 1:2 + water, x*DES 0.4, 40°C", "result": "0.0893±0.0002", "unit": "mole fraction"}, {"measurement": "Mole fraction solubility", "setting": "ChCl – TEG 1:2 + water, x*DES 0.5, 25°C", "result": "0.0491±0.0004", "unit": "mole fraction"}, {"measurement": "Mole fraction solubility", "setting": "ChCl – TEG 1:2 + water, x*DES 0.5, 30°C", "result": "0.0612±0.0003", "unit": "mole fraction"}, {"measurement": "Mole fraction solubility", "setting": "ChCl – TEG 1:2 + water, x*DES 0.5, 35°C", "result": "0.0841±0.0005", "unit": "mole fraction"}, {"measurement": "Mole fraction solubility", "setting": "ChCl – TEG 1:2 + water, x*DES 0.5, 40°C", "result": "0.1208±0.0009", "unit": "mole fraction"}, {"measurement": "Mole fraction solubility", "setting": "ChCl – TEG 1:2 + water, x*DES 0.6, 25°C", "result": "0.0593±0.0005", "unit": "mole fraction"}, {"measurement": "Mole fraction solubility", "setting": "ChCl – TEG 1:2 + water, x*DES 0.6, 30°C", "result": "0.0754±0.0003", "unit": "mole fraction"}, {"measurement": "Mole fraction solubility", "setting": "ChCl – TEG 1:2 + water, x*DES 0.6, 35°C", "result": "0.1040±0.0006", "unit": "mole fraction"}, {"measurement": "Mole fraction solubility", "setting": "ChCl – TEG 1:2 + water, x*DES 0.6, 40°C", "result": "0.1464±0.0014", "unit": "mole fraction"}, {"measurement": "Mole fraction solubility", "setting": "ChCl – TEG 1:2 + water, x*DES 0.7, 25°C", "result": "0.0715±0.0007", "unit": "mole fraction"}, {"measurement": "Mole fraction solubility", "setting": "ChCl – TEG 1:2 + water, x*DES 0.7, 30°C", "result": "0.0924±0.0007", "unit": "mole fraction"}, {"measurement": "Mole fraction solubility", "setting": "ChCl – TEG 1:2 + water, x*DES 0.7, 35°C", "result": "0.1254±0.0014", "unit": "mole fraction"}, {"measurement": "Mole fraction solubility", "setting": "ChCl – TEG 1:2 + water, x*DES 0.7, 40°C", "result": "0.1718±0.0012", "unit": "mole fraction"}, {"measurement": "Mole fraction solubility", "setting": "ChCl – TEG 1:2 + water, x*DES 0.8, 25°C", "result": "0.0827±0.0009", "unit": "mole fraction"}, {"measurement": "Mole fraction solubility", "setting": "ChCl – TEG 1:2 + water, x*DES 0.8, 30°C", "result": "0.1080±0.0013", "unit": "mole fraction"}, {"measurement": "Mole fraction solubility", "setting": "ChCl – TEG 1:2 + water, x*DES 0.8, 35°C", "result": "0.1418±0.0015", "unit": "mole fraction"}, {"measurement": "Mole fraction solubility", "setting": "ChCl – TEG 1:2 + water, x*DES 0.8, 40°C", "result": "0.1910±0.0018", "unit": "mole fraction"}, {"measurement": "Mole fraction solubility", "setting": "ChCl – TEG 1:2 + water, x*DES 0.9, 25°C", "result": "0.0851 mole fraction and 0.0851±0.0005 mole fraction"}, {"measurement": "Mole fraction solubility", "setting": "ChCl – TEG 1:2 + water, x*DES 0.9, 30°C", "result": "0.1116±0.0017", "unit": "mole fraction"}, {"measurement": "Mole fraction solubility", "setting": "ChCl – TEG 1:2 + water, x*DES 0.9, 35°C", "result": "0.1479±0.0013", "unit": "mole fraction"}, {"measurement": "Mole fraction solubility", "setting": "ChCl – TEG 1:2 + water, x*DES 0.9, 40°C", "result": "0.1964±0.0019", "unit": "mole fraction"}, {"measurement": "Mole fraction solubility", "setting": "ChCl – TEG 1:2, x*DES 1.0 (neat DES), 25°C", "result": "0.0835±0.0010", "unit": "mole fraction"}, {"measurement": "Mole fraction solubility", "setting": "ChCl – TEG 1:2, x*DES 1.0 (neat DES), 30°C", "result": "0.1032±0.0014", "unit": "mole fraction"}, {"measurement": "Mole fraction solubility", "setting": "ChCl – TEG 1:2, x*DES 1.0 (neat DES), 35°C", "result": "0.1364±0.0007", "unit": "mole fraction"}, {"measurement": "Mole fraction solubility", "setting": "ChCl – TEG 1:2, x*DES 1.0 (neat DES), 40°C", "result": "0.1928±0.0017", "unit": "mole fraction"}, {"measurement": "Increase in the solubility compared to the neat DES", "setting": "ChCl-TEG 1:2, x*DES = 0.9 (xwater = 0.1)", "result": 2, "unit": "%"}, {"measurement": "Solubility increase between 25 °C and 40 °C", "setting": "neat DES (x*DES = 1.0) involving betaine (Bet-TEG 1:2)", "result": 161, "unit": "%"}, {"measurement": "Solubility increase between 25 °C and 40 °C", "setting": "neat DES (x*DES = 1.0) with choline chloride (ChCl-TEG 1:2)", "result": 231, "unit": "%"}]}
